What was measured:
Format in all cases: in vivo
[1] = tested on: Japanese bulrush (Scirpus juncoides Roxb.); test: Test Example 1: herbicidal effect by soil application to paddy field; settings: for herbicidal effect (index), Scirpus juncoides Roxb.: soil application to paddy field, rated by standard of Table 34; for herbicidal effect, Scirpus juncoides Roxb.: paddy field soil application, active ingredient 1,000 g per 1 hectare, wettable powder added dropwise to water surface the day after sowing, examined on the 21st day after application
Procedure, shortened: (§1)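 Under greenhouse conditions, seeds sown on puddled paddy soil in 100 cm2 pots under 3 cm of standing water received the test compound; injury was assessed with a standard scoring scheme three weeks (day 21) after treatment.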

[2] = tested on: early watergrass (Echinochloa oryzicola Vasing); test: as above; settings: for herbicidal effect (index), Echinochloa oryzicola Vasing: soil application to paddy field, rated by standard of Table 34; for herbicidal effect, Echinochloa oryzicola Vasing: paddy field soil application, active ingredient 1,000 g per 1 hectare, wettable powder added dropwise to water surface the day after sowing, examined on the 21st day after application
Procedure, shortened: as §1

[3] = tested on: heartshape false pickerelweed (Monochoria vaginalis (Burm.f.) C.Presl); test: as above; settings: for herbicidal effect (index), Monochoria vaginalis (Burm.f.) C.Presl: soil application to paddy field, rated by standard of Table 34; for herbicidal effect, Monochoria vaginalis (Burm. f.) C. Presl: paddy field soil application, active ingredient 1,000 g per 1 hectare, wettable powder added dropwise to water surface the day after sowing, examined on the 21st day after application
Procedure, shortened: as §1

[4] = tested on: barnyardgrass (Echinochloa crus-galli (L.) P. Beauv. var. crus-galli); test: Test Example 2: herbicidal effect by soil application to upland field; settings: soil surface spray, upland field soil, 1,000 g active ingredient per hectare, 21st day after application
Procedure, shortened: (§2)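 After sowing and covering, the soil received an even aqueous spray of wettable powder at a rate of 1,000 g active ingredient/ha (1,000 L/ha). Ratings of herbicidal effect followed a standard scale 21 days post-treatment, with plants held in a greenhouse.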

[5] = tested on: green foxtail (Setaria viridis (L.) P. Beauv.); test: as above; settings: soil surface spray, upland field soil, 1,000 g active ingredient per hectare, 21st day after application
Procedure, shortened: as §2

[6] = tested on: slender amaranth (Amaranthus viridis L.); test: as above; settings: soil surface spray, upland field soil, 1,000 g active ingredient per hectare, 21st day after application
Procedure, shortened: as §2

[7] = tested on: velvetleaf (Abutilon theophrasti medicus); test: as above; settings: soil surface spray, upland field soil, 1,000 g active ingredient per hectare, 21st day after application
Procedure, shortened: as §2

[8] = tested on: barnyardgrass (Echinochloa crus-galli (L.) P. Beauv. var. crus-galli); test: Test Example 3: herbicidal effect by application to upland field (foliage treatment); settings: 14th day after application; for herbicidal effect, Barnyardgrass: foliage treatment, 1,000 g active ingredient per 1 hectare, greenhouse; for herbicidal effect (index), Barnyardgrass: foliage treatment, plants grown two weeks, 1,000 g active ingredient per hectare
Procedure, shortened: (§3)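 Read-out is a visual herbicidal-effect grade on a standard scale, taken on the 14th day after a single foliar spray. The spray was wettable powder diluted in water, 1,000 g active ingredient/ha at 1,000 L/ha, applied to greenhouse plants two weeks after sowing.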

[9] = tested on: green foxtail (Setaria viridis (L.) P. Beauv.); test: as above; settings: 14th day after application; for herbicidal effect, Green Foxtail: foliage treatment, 1,000 g active ingredient per 1 hectare, greenhouse; for herbicidal effect (index), Green Foxtail: foliage treatment, plants grown two weeks, 1,000 g active ingredient per hectare
Procedure, shortened: as §3

[10] = tested on: slender amaranth (Amaranthus viridis L.); test: as above; settings: 14th day after application; for herbicidal effect, Slender Amaranth: foliage treatment, 1,000 g active ingredient per 1 hectare, greenhouse; for herbicidal effect (index), Slender Amaranth: foliage treatment, plants grown two weeks, 1,000 g active ingredient per hectare
Procedure, shortened: as §3

[11] = tested on: velvetleaf (Abutilon theophrasti medicus); test: as above; settings: 14th day after application; for herbicidal effect, Velvetleaf: foliage treatment, 1,000 g active ingredient per 1 hectare, greenhouse; for herbicidal effect (index), Velvetleaf: foliage treatment, plants grown two weeks, 1,000 g active ingredient per hectare
Procedure, shortened: as §3

Row | Structure (SMILES) | herbicidal effect (index), Scirpus juncoides Roxb. [1] | herbicidal effect (index), Echinochloa oryzicola Vasing [2] | herbicidal effect (index), Monochoria vaginalis (Burm.f.) C.Presl [3] | herbicidal effect (index), Barnyardgrass [4] | herbicidal effect (index), Green Foxtail [5] | herbicidal effect (index), Slender Amaranth [6] | herbicidal effect (index), Velvetleaf [7] | herbicidal effect, Barnyardgrass [8] | herbicidal effect, Green Foxtail [9] | herbicidal effect, Slender Amaranth [10] | herbicidal effect, Velvetleaf [11] | herbicidal effect, Scirpus juncoides Roxb. [1] | herbicidal effect, Echinochloa oryzicola Vasing [2] | herbicidal effect, Monochoria vaginalis (Burm. f.) C. Presl [3] | herbicidal effect (index), Barnyardgrass [8] | herbicidal effect (index), Green Foxtail [9] | herbicidal effect (index), Slender Amaranth [10] | herbicidal effect (index), Velvetleaf [11]
1 | O=C1CCCC(O)=C1C(=O)c1cnccn1 [Comparative Compound 1, reference compound] | 0 (0 to less than 10% of herbicidal effect and crop phytotoxicity) | 1 (10 to less than 30% of herbicidal effect and crop phytotoxicity) | 0 (0 to less than 10% of herbicidal effect and crop phytotoxicity) | 1 (10 to less than 30% of herbicidal effect and crop phytotoxicity) | 1 (10 to less than 30% of herbicidal effect and crop phytotoxicity) | 0 (0 to less than 10% of herbicidal effect and crop phytotoxicity) | 1 (10 to less than 30% of herbicidal effect and crop phytotoxicity) | 0 (0 to less than 10% of herbicidal effect and crop phytotoxicity) | 0 (0 to less than 10% of herbicidal effect and crop phytotoxicity) | 1 (10 to less than 30% of herbicidal effect and crop phytotoxicity) | 2 (30 to less than 50% of herbicidal effect and crop phytotoxicity) |  |  |  |  |  |  | 
2 | O=C1CCCC(O)=C1C(=O)c1ccc2ccccc2n1 [Comparative Compound 2, reference compound] | 0 (0 to less than 10% of herbicidal effect and crop phytotoxicity) | 0 (0 to less than 10% of herbicidal effect and crop phytotoxicity) | 0 (0 to less than 10% of herbicidal effect and crop phytotoxicity) | 3 (50 to less than 70% of herbicidal effect and crop phytotoxicity) | 0 (0 to less than 10% of herbicidal effect and crop phytotoxicity) | 2 (30 to less than 50% of herbicidal effect and crop phytotoxicity) | 2 (30 to less than 50% of herbicidal effect and crop phytotoxicity) | 0 (0 to less than 10% of herbicidal effect and crop phytotoxicity) | 0 (0 to less than 10% of herbicidal effect and crop phytotoxicity) | 1 (10 to less than 30% of herbicidal effect and crop phytotoxicity) | 5 (90% or more of herbicidal effect and crop phytotoxicity) |  |  |  |  |  |  | 
3 | Cn1c(C(F)(F)F)ccc(C(=O)C2=C(O)CCCC2=O)c1=O [I-1, 2-[1,2-dihydro-1-methyl-2-oxo-6-(trifluoromethyl)-pyridine-3-carbonyl]-3-hydroxy-2-cyclohexen-1-one] |  |  |  | 5 (90% or more of herbicidal effect and crop phytotoxicity) | 4 (70 to less than 90% of herbicidal effect and crop phytotoxicity) | 5 (90% or more of herbicidal effect and crop phytotoxicity) | 5 (90% or more of herbicidal effect and crop phytotoxicity) |  |  |  |  | 5 (90% or more of herbicidal effect and crop phytotoxicity) | 5 (90% or more of herbicidal effect and crop phytotoxicity) | 5 (90% or more of herbicidal effect and crop phytotoxicity) | 4 (70 to less than 90% of herbicidal effect and crop phytotoxicity) | 3 (50 to less than 70% of herbicidal effect and crop phytotoxicity) | 5 (90% or more of herbicidal effect and crop phytotoxicity) | 5 (90% or more of herbicidal effect and crop phytotoxicity)
4 | CCCn1c(C(F)(F)F)ccc(C(=O)C2=C(O)CCCC2=O)c1=O [I-3] |  |  |  | 5 (90% or more of herbicidal effect and crop phytotoxicity) | 5 (90% or more of herbicidal effect and crop phytotoxicity) | 5 (90% or more of herbicidal effect and crop phytotoxicity) | 5 (90% or more of herbicidal effect and crop phytotoxicity) |  |  |  |  | 5 (90% or more of herbicidal effect and crop phytotoxicity) | 5 (90% or more of herbicidal effect and crop phytotoxicity) | 5 (90% or more of herbicidal effect and crop phytotoxicity) | 5 (90% or more of herbicidal effect and crop phytotoxicity) | 5 (90% or more of herbicidal effect and crop phytotoxicity) | 5 (90% or more of herbicidal effect and crop phytotoxicity) | 5 (90% or more of herbicidal effect and crop phytotoxicity)
5 | CC(C)n1c(C(F)(F)F)ccc(C(=O)C2=C(O)CCCC2=O)c1=O [I-4] |  |  |  | 5 (90% or more of herbicidal effect and crop phytotoxicity) | 4 (70 to less than 90% of herbicidal effect and crop phytotoxicity) | 5 (90% or more of herbicidal effect and crop phytotoxicity) | 5 (90% or more of herbicidal effect and crop phytotoxicity) |  |  |  |  | 5 (90% or more of herbicidal effect and crop phytotoxicity) | 5 (90% or more of herbicidal effect and crop phytotoxicity) | 5 (90% or more of herbicidal effect and crop phytotoxicity) | 5 (90% or more of herbicidal effect and crop phytotoxicity) | 3 (50 to less than 70% of herbicidal effect and crop phytotoxicity) | 5 (90% or more of herbicidal effect and crop phytotoxicity) | 5 (90% or more of herbicidal effect and crop phytotoxicity)
6 | CCCCn1c(C(F)(F)F)ccc(C(=O)C2=C(O)CCCC2=O)c1=O [I-5] |  |  |  | 5 (90% or more of herbicidal effect and crop phytotoxicity) | 5 (90% or more of herbicidal effect and crop phytotoxicity) | 5 (90% or more of herbicidal effect and crop phytotoxicity) | 5 (90% or more of herbicidal effect and crop phytotoxicity) |  |  |  |  | 5 (90% or more of herbicidal effect and crop phytotoxicity) | 5 (90% or more of herbicidal effect and crop phytotoxicity) | 5 (90% or more of herbicidal effect and crop phytotoxicity) | 5 (90% or more of herbicidal effect and crop phytotoxicity) | 5 (90% or more of herbicidal effect and crop phytotoxicity) | 5 (90% or more of herbicidal effect and crop phytotoxicity) | 5 (90% or more of herbicidal effect and crop phytotoxicity)
7 | C=CCn1c(C(F)(F)F)ccc(C(=O)C2=C(O)C(C)(C)C(=O)C(C)(C)C2=O)c1=O [II-42] |  |  |  | 5 (90% or more of herbicidal effect and crop phytotoxicity) | 3 (50 to less than 70% of herbicidal effect and crop phytotoxicity) | 5 (90% or more of herbicidal effect and crop phytotoxicity) | 5 (90% or more of herbicidal effect and crop phytotoxicity) | 5 (90% or more of herbicidal effect and crop phytotoxicity) | 3 (50 to less than 70% of herbicidal effect and crop phytotoxicity) | 5 (90% or more of herbicidal effect and crop phytotoxicity) | 5 (90% or more of herbicidal effect and crop phytotoxicity) |  |  |  |  |  |  | 
8 | CS(=O)(=O)CCn1c(C(F)(F)F)ccc(C(=O)C2=C(O)C3CCC(C3)C2=O)c1=O (stereo not shown) [III-30] |  |  |  | 5 (90% or more of herbicidal effect and crop phytotoxicity) | 5 (90% or more of herbicidal effect and crop phytotoxicity) | 5 (90% or more of herbicidal effect and crop phytotoxicity) | 5 (90% or more of herbicidal effect and crop phytotoxicity) | 5 (90% or more of herbicidal effect and crop phytotoxicity) | 5 (90% or more of herbicidal effect and crop phytotoxicity) | 5 (90% or more of herbicidal effect and crop phytotoxicity) | 5 (90% or more of herbicidal effect and crop phytotoxicity) |  |  |  |  |  |  | 
